Laboratory results reported in patent US4223021A, “Synthetic peptides having pituitary growth hormone releasing activity” (priority 1979, dated 1980).
Residues, ends and D or L forms follow the SMILES beside them.

Tested on: pituitaries removed from 20 day old female rats
Experiment: In vitro growth hormone release study (incubated rat pituitaries, GH radioimmunoassay)
Assay type: cell-based
Settings: mean ± SEM, control -198± 85
Procedure: Female rats of the CD-1 strain were housed in a constant temperature room at 24° C. with 14 hours light and 10 hours darkness. The rats were fed Purina brand rat chow ab libitum.
All studies were started between 0800 and 1000 hours.
Pituitaries were removed from 20 day old female rats. Two pituitaries were incubated at 36° C. in 1 ml of lactated Ringer's solution in 10 ml polytetrafluoroethylene beakers in a Dubnoff Shaker (90 cycles/min.). The pituitaries were incubated a total of 4 hours (P1, P2, I3, and I4). After two successive one hour preincubation periods (P1, P2), the peptide was added to the incubation medium hourly for 2 hours (I3, I4).
This in vitro study was performed in triplicate and a standard radioimmunoassay of growth hormone present in the incubation medium was performed in duplicate. The hormonal activity was calculated as the difference (Δ) of growth hormone (GH) levels between I3, I4 and P2, i.e., (I3 -P2) and (I4 -P2). P values were calculated by Students' t test using six growth hormone values for each value recorded.
The growth hormone radioimmunoassay reagents were distributed by the National Institute of Arthritis and […] (NIAMDD) program. The growth hormone values were calculated in terms of nanograms (ng) of a rat standard with a growth hormone potency of 0.61 units/mg.

With `NC(=O)[C@@H](Cc1ccccc1)NC(=O)[C@H](Cc1ccccc1)NC(=O)[C@@H](Cc1c[nH]c2ccccc12)NC(=O)CNC(=O)[C@@H](N)Cc1ccc(O)cc1` [H2 N-Tyr-Gly-D-Trp-Phe-D-Phe-CONH2] (HELM PEPTIDE1{Y.G.[dW].F.[dF].[am]}$$$$V2.0) the “In vitro growth hormone release (ΔGH, I3/I4 minus P2)” value (1μg peptide, P value not significant) was 200 ± 167 ngΔGH/ml incubation medium, the “In vitro growth hormone release (ΔGH, I3/I4 minus P2)” value (10μg peptide, P value <0.001) was 1384 ± 120 ngΔGH/ml incubation medium and the “In vitro growth hormone release (ΔGH, I3/I4 minus P2)” value (100μg peptide, P value <0.001) was 1196 ± 194 ngΔGH/ml incubation medium.
